In publication PMC11949107, “Polyunsaturated fatty acids and their endocannabinoid-related metabolites activity at human TRPV1 and TRPA1 ion channels expressed in HEK-293 cells” (PeerJ, 2025):
“And” between values parts separate entries of the source, which are not always exact repeats. Equal values may be shown once.

How the values were obtained:
human TRPV1 [1] = molecular target: T1, human TRPV1 (Homo sapiens, UniProt Q8NER1); assay: PMA (phorbol ester) potentiation of TRPV1 responses in HEK-293 TRPV1 cells; assay type: cell-based; parameters: key to Drugs alone, individual experiments: change in [Ca]i as % of pre-drug baseline
T1 construct: Life Technologies (cells); host or cells: Flp-In T-REx HEK-293

human TRPV1 [2] = molecular target: T1, human TRPV1; assay: Calcium 5 dye [Ca]i assay in HEK-293 Flp-In T-REx cells expressing TRPV1 (agonist response); assay type: cell-based; conditions: for Change in Ca5 fluorescence, individual experiments (CRC raw data): TRPV1 cells
How it was run: (§1)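 Tetracycline-induced (1 µg ml^−1, 4 h) HEK-293 T-REx cells loaded with Calcium 5 dye plus 1.25 mM probenecid for 1 h; agonist added after 1 min baseline (0.1% DMSO final), fluorescence (485/525 nm) read every 2 s for 5 min at 37 °C. Response as % change from baseline, solvent-subtracted; EC50/Emax from three-parameter logistic fit, given as pEC50.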

HEK-293 EV cells = assay: Calcium 5 dye [Ca]i assay in HEK-293 empty vector (EV) cells; assay type: cell-based, human; conditions: 10 µM; HEK-293 EV cells; percentage of predrug baseline
How it was run: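 Tetracycline at 1 µg ml^−1 was added 4 h before testing; cells were loaded with Calcium 5 dye for 1 h and read at 37 °C, with drug added after 1 min baseline (final 0.1% DMSO). The response was the % change from the 60 s baseline after solvent subtraction, and EC50/Emax came from a three-parameter logistic fit, reported as pEC50.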

human TRPV1 [3] = molecular target: T1, human TRPV1; assay: Pre-incubation with PUFAs or capsazepine, then capsaicin (10 nM) response in HEK-293 TRPV1 cells; assay type: cell-based
Method: Intracellular calcium [Ca]i levels were assessed using the calcium 5 kit from Molecular Devices (# R8186, Sunnyvale, CA, USA) on a FlexStation 3 Microplate Reader (Molecular Devices, Sunnyvale, CA, USA). […] Probenecid (cat # 50027; Biotium) which helps to prevent expulsion of calcium indicator from the cells was added to a final concentration of 1.25 mM. 90 µL of the dye were loaded into each well of the plate and incubated for 1 h before reading in the FlexStation 3 at 37 °C. Fluorescence was recorded every 2 s (λ excitation = 485 nm, λ emission = 525 nm) for 5 min. After 1 min of baseline recording, 20 µL of the drug, dissolved in HBSS with 1% dimethyl sulfoxide (DMSO) (cat # D2650; Sigma-Aldrich, Melbourne, Australia) was added (final DMSO concentration was 0.1% in well). […]

human TRPA1 = molecular target: T2, human TRPA1 (Homo sapiens, UniProt O75762); assay: Calcium 5 dye [Ca]i assay in HEK-293 Flp-In T-REx cells expressing TRPA1 (agonist response); assay type: cell-based; conditions: for [Ca]i response (change in fluorescence), individual replicates: sheet Figure 4
T2 construct: Life Technologies (cells); host or cells: Flp-In T-REx HEK-293
How it was run: as §1

T2 sequence (O75762 whole entry): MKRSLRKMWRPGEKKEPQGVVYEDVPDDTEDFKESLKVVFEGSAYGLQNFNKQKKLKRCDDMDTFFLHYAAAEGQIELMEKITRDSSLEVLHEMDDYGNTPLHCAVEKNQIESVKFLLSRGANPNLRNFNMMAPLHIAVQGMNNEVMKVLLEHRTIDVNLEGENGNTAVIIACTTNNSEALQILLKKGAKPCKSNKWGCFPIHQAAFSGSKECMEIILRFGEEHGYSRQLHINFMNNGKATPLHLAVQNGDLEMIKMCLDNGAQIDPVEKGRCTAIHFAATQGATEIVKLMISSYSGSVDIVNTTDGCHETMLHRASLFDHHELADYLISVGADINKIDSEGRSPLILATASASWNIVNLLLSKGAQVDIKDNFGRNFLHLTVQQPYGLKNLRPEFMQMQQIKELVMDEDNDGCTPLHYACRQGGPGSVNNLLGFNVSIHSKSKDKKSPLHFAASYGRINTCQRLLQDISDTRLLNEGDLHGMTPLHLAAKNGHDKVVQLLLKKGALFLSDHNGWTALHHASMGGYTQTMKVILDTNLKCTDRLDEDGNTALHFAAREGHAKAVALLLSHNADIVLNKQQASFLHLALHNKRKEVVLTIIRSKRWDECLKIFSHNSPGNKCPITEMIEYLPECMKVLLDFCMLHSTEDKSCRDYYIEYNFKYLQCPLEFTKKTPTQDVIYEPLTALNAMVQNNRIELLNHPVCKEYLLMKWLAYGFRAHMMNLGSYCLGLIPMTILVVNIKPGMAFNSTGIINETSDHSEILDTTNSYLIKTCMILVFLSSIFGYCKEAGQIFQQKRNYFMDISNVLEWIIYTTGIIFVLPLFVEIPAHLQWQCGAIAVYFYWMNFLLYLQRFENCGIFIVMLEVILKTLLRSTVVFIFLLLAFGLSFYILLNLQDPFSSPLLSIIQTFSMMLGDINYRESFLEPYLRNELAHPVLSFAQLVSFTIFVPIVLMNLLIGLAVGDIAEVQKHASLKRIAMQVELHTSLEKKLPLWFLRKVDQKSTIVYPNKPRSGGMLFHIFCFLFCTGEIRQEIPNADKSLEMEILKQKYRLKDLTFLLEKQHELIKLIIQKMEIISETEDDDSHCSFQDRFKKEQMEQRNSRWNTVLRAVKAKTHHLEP
T1 sequence (Q8NER1 whole entry): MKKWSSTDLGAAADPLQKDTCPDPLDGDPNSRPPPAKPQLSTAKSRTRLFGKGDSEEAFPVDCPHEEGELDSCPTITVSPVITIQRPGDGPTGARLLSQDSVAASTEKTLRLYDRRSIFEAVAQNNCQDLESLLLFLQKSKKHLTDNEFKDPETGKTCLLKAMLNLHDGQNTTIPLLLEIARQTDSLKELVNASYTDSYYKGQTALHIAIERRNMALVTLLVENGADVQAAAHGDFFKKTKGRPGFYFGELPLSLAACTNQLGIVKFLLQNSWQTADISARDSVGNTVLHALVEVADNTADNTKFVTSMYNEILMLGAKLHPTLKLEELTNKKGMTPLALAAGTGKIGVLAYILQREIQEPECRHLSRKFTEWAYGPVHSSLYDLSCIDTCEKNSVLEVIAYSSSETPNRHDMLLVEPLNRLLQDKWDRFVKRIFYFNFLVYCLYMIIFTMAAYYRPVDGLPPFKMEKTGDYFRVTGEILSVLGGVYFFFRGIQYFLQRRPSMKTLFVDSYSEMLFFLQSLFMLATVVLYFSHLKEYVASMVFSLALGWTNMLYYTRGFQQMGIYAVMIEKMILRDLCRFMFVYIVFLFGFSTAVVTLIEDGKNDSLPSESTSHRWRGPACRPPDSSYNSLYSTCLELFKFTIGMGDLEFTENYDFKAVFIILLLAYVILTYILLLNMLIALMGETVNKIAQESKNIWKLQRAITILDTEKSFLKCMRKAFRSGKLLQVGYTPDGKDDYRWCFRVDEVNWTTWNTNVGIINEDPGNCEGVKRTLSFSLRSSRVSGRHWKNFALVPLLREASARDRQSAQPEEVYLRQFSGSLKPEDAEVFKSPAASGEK

CC/C=C\C/C=C\C/C=C\C/C=C\C/C=C\CCCC(=O)O [EPA, eicosapentaenoic acid]
TRPV1 response after exposure to PMA (human TRPV1 [1]; PMA 100 nM, 5 min pretreatment): only observed when a phorbol ester was present
Drugs post-PMA, individual experiments (human TRPV1 [1]; PUFA 10 µM after PMA 100 nM for 5 min, response to PMA alone subtracted): 49.2015 and 39.5321 and 37.0404 and 36.9714 and 31.5302 and 32.9212
Drugs alone, individual experiments (human TRPV1 [1]; PUFA 10 µM without PMA pretreatment, TRPV1 cells): 7.525 and 11.4184 and 9.766 and 10.5311 and 6.999 and 3.475 and 2.716 and 6.787 and 18.8884
Elevation of [Ca]i in HEK-293 TRPV1 cells compared with HEK-293 EV cells (human TRPV1 [2]; 10 µM): did not produce a notable change
Change of Ca5 fluorescence, Mean ± SEM, TRPV1 (10 µM) (human TRPV1 [2]; 10 µM, HEK-293 TRPV1 cells, percentage of predrug baseline): 16 ± 5%
Emax at 30 µM (human TRPV1 [2]; HEK293, read-out: Emax ± SEM % TRPV1 (30 µM)): 34 ± 5%
Change in Ca5 fluorescence, individual experiments (CRC raw data) (human TRPV1 [2]; log concentration -4.52288 (M)): 41.79 and 35.9904 and 24.921 and 28.9142 and 55.0634 and 19.9806
Change in Ca5 fluorescence, individual experiments (CRC raw data) (human TRPV1 [2]; log concentration -5 (M)): 41.213 and 9.61 and 11.6653 and 7.673 and 15.0259 and 7.993
Change in Ca5 fluorescence, individual experiments (CRC raw data) (human TRPV1 [2]; log concentration -5.52288 (M)): 10.434 and 4.673 and 8.042 and 0.3072
Change in Ca5 fluorescence, individual experiments (CRC raw data) (human TRPV1 [2]; log concentration -6 (M)): 6.783 and 4.449 and 9.084 and 5.542 and 3.583 and -0.1759
Change in Ca5 fluorescence, individual experiments (CRC raw data) (human TRPV1 [2]; log concentration -6.52288 (M)): 4.775 and 5.179 and 8.63 and 0.2635
Change in Ca5 fluorescence, individual experiments (CRC raw data) (human TRPV1 [2]; log concentration -7 (M)): 4.257 and 3.906 and 5.164 and 0.2974
Change of Ca5 fluorescence, Mean ± SEM, EV (10 µM) (HEK-293 EV cells): 14 ± 5%
Effect of pre-treatment on the capsaicin response (human TRPV1 [3]; 10 µM, 5 min exposure, then capsaicin 10 nM): did not affect
Post-capsaicin: response to subsequent capsaicin addition, individual experiments (human TRPV1 [3]; capsaicin 10 nM after 5 min drug 10 µM, TRPV1 cells): 203.333 and 227.843 and 146.783 and 264.915 and 237.782 and 308.835
Pre-capsaicin: response to first drug, individual experiments (human TRPV1 [3]; drug 10 µM for 5 min, TRPV1 cells): 16.1107 and 14.1511 and 10.793 and 4.456 and 14.6833 and 13.0981
Elevation of [Ca]i in HEK-293 TRPA1 cells compared with HEK-293 EV cells (human TRPA1; 10 µM (cinnamaldehyde 300 µM)): did not produce a change
Change of Ca5 fluorescence, Mean ± SEM, TRPA1 (10 µM) (human TRPA1; 10 µM, HEK-293 TRPA1 cells, percentage of predrug baseline): 58 ± 42%
TRPA1 activation at the highest concentration tested (human TRPA1; 30 µM): activated TRPA1
Emax at 30 µM (human TRPA1; HEK293, read-out: Emax ± SEM % TRPA1 (30 µM), highest tested concentration (30 µM) or derived from concentration-response curves (cinnamaldehyde)): 232 ± 67%
[Ca]i response (change in fluorescence), individual replicates (human TRPA1; concentration -4.52288 (log)): 377.608 and 117.826 and 193.269 and 60.6586 and 155.376 and 486.394
[Ca]i response (change in fluorescence), individual replicates (human TRPA1; concentration -5 (log)): 17.4998 and 14.5924 and 9.889 and 12.76 and 22.7093 and 269.088
[Ca]i response (change in fluorescence), individual replicates (human TRPA1; concentration -5.52288 (log)): 2.522 and 3.13 and 3.703 and 4.731
[Ca]i response (change in fluorescence), individual replicates (human TRPA1; concentration -6 (log)): 1.85 and 3.994 and 3.577 and 9.657 and 3.961 and 6.207
[Ca]i response (change in fluorescence), individual replicates (human TRPA1; concentration -6.52288 (log)): 1.392 and 2.613 and 2.728 and 11.1533
[Ca]i response (change in fluorescence), individual replicates (human TRPA1; concentration -7 (log)): 0.08029 and 3.966 and 3.106 and 5.407
